Experimental data published in patent US20250304575A1, “COMPOUNDS AND PHARMACEUTICAL COMPOSITIONS THEREOF FOR THE TREATMENT OF NEURODEGENERATIVE DISORDERS” (Galapagos NV, priority 2022, published 2025).

Tested on: Aβ1-42-injected mice (short-term spatial memory)
Assay: Alzheimer's disease mouse model using intrahippocampal injection of oligomers of amyloid beta; forced alternation Y-maze test
Assay type: in vivo, C57BL6 mice
Conditions: for Cumulative duration (sec) in the new arm of the Y-maze: Aβ1-42 (2 μL/side, 100 μM) injected mice, n = 12, daily treatment, Compounds 5 mg/kg p.o., Donepezil 1 mg/kg i.p., group mean, Aβ1-42 + vehicle group 78.9, sham 115.5
[1] = compared to Aβ1-42-injected, vehicle treated mice (group ID 2), 5 mg/kg p.o. daily

Method: This study evaluated the cognitive functions of the mice after a chronic administration of the compounds, after the ApO injury.
The forced alternation Y-maze test relies on the natural tendency of rodents to explore new environments and was used to evaluate short-term spatial memory and exploratory behavior of injured mice.
18-month-old male C57BL6 mice (Janvier Labs) were housed for acclimatation for 1 week in Neuro-Sys facilities and were maintained in a reversed 12 h light-dark cycle. The animals were group-housed (2-4 animals per cage) and maintained in room with controlled temperature (21-22° C.) and hygrometry (40-60%) and with food and water available ad libitum.
After one week of acclimatization, all the mice were subjected to a bilateral hippocampal stereotaxic surgery determined relative to the bregma according to the Paxinos and Franklin's mouse brain atlas(Yeung et al. 2020).
The Aβ1-42 preparation were done following the procedure described by Callizot (Callizot et al. 2013). Briefly, Aβ1-42 peptide (Bachem, 1071428, CAS #107761-42-2) was dissolved in the vehicle (0.5% Methylcellulose in water (w/v)), at an initial concentration of 100 μM. This solution was gently agitated for 3 days at 37° C. in the dark.
After agitation, the Aβ1-42 preparation were bilaterally injected into the stratum oriens, striatum pyramidal and striatum radiatum of the CA1 area of the hippocampus at three different depths within the CA1 region. Stereotaxic bilateral administration of 2 μL/side of Aβ1-42 preparation (100 μM, containing ˜15 mol/L of oligomers precisely measured by automatic WB), or vehicle, were bilaterally injected with a Hamilton syringe in the CA 1 area of the hippocampus (0.2 μL/min with an Elite Nanomite syringe pump).
All treatments started the day before the stereotaxic injections of A31-42 and were administrated daily until the last day of the experiment at which point different tissue samples were collected.
Test compounds were administered by oral gavage (p.o.).
Preparation with vehicle 1: The required amount of the test compound was weighted and placed in a glass tube. The compound was dissolved in 0.5% Methylcellulose in water (w/v) corresponding to 100% of the final volume and vortexed. The formulation (glass vial) was placed in an ultrasonic bath for 30 min.
Preparation with vehicle 2: The required amount of the test compound was weighted and placed in a glass tube. The compound was dissolved in a volume PEG200 corresponding to 25% of the final volume (at 4× concentration). The preparation was aliquoted in tubes protected from light and stored at 4° C. Before administration, a volume of MC (0.5%, w/v in sterile water) corresponding to 75% of the final volume (for 1× concentration) was added to the preparation and vortexed. The formulation (glass vial) was placed in an ultrasonic bath for homogenization. The glass vial containing the preparation was kept under agitation and protected from light until administration.
The Y-maze was used to assess short term memory (working memory) in mice. Spatial reference memory, which is underlined by the hippocampus, was tested by placing the test mice into the Y-maze with one arm closed off during training. After an intertrial interval, the mouse should remember which arm it has not explored previously and should visit this arm more often (Kraeuter, Guest, and Samyai 2019).

SMILES | Cumulative duration (sec) in the new arm of the Y-maze [s] | Effect on short-term spatial memory (Y-maze), day 7 post-surgery [1] | Effect on short-term spatial memory (Y-maze), day 14 post-surgery (day 14 post-surgery, compared to Aβ1-42-injected, vehicle treated mice (group ID 2), 5 mg/kg p.o. daily)
CN(C)S(=O)(=O)C1CN(c2ccc3cn(-c4ccccc4)nc3n2)C1 [Compound 66, N,N-dimethyl-1-(2-phenyl-2H-pyrazolo[3,4-b]pyridin-6-yl)azetidine-3-sulfonamide] | 104.4 | significant beneficial effects | 
CN(C)S(=O)(=O)C1CN(c2cc3nn(-c4ccc(F)cc4)cc3cn2)C1 [Compound 14, 1-(2-(4-fluorophenyl)-2H-pyrazolo[4,3-c]pyridin-6-yl)-N,N-dimethylazetidine-3-sulfonamide] | 112.5 | significant beneficial effects | significant beneficial effects
